Test results: patent US20050059588A1, “Peptides which generate antibodies resulting in lysis of pathologically adherent erythrocytes” (REGENTS OF THE UNIVERSITY OF CALIFORNIA, priority 2003, published 2005)

How the values were obtained:
CD36 [1] = assay: Cytoadherence assay: binding of infected erythrocytes made from AE1-modified erythrocytes to immobilized CD36; format: cell-based, human; conditions: for binding of treated IEs to CD36, in words: immobilized CD36; for percentage of bound IEs/mm^2 as compared to untreated cells, CD36: uninfected erythrocytes treated (0.5 mg/ml chymotrypsin, 100 μM DIDS or 0.25 mg/ml FMA), then infected, harvested after 40 hr, mean ±SD of triplicate
Protocol: (§1) Uninfected erythrocytes were treated with either 0.25 mg/ml fluorescein maleimide (FMA) (1 hr at 25° C.), 100 μM DIDS (1 hr at 37° C.) or with 0.5 mg/ml chymotrypsin (0.5 hr at 37° C.). Modified erythrocytes were infected and after 40 hr, mature stages were harvested and a standard cytoadherence assay using CD36 or TSP immobilized on slides was carried out. The numbers are the percentage of bound IEs/mm^2 as compared to untreated cells. Each value represents the mean ±SD of triplicate determinations.
(§2) Partially purified CD36 (CD36 fraction) was obtained from human platelets essentially by the method of Tandon et al., J. Biol Chem, 264:7570 (1989). However, the last purification step, using Ultrogel AcA-44, was omitted. TSP was purified as described in Layler et al., J Biol Chem, 253:8609 (1978). To remove excess amount of Triton X-100 in CD36 solution, 5 ml of a CD36 solution containing 0.1% Triton X-100 (initial concentration 268 μg protein/ml) was incubated with 0.5 g of SM-2 beads (Bio-Rad, Hercules, Calif.) at room temperature for 2 h and dialyzed against 500 ml of distilled water. Five microliters of the dialyzed solution was mounted onto multi-well glass slides, and incubated at 4° C. overnight. To immobilize TSP, 5 μl of TSP solution (50 μg/ml in 50 mM Bis-Tris, 100 mM NaCl, 25 mM calcium lactate, pH 7.4 (BTC)) was spotted on plastic slides (Permanox® plastic, Nunc, Neperville, Ill.) and incubated at 4° C. overnight. After removal of the solution by gentle aspiration, CD36- and TSP-immobilized spots were blocked with 1% BSA in phosphate buffered saline (PBS) at room temperature for 1 h.
(§3) Cytoadherence assays were performed as described in Crandall et al., Exp Parasitol, 73:362 (1991) (“Crandall 1991”). In the case of inhibition assay using peptides, the spots of immobilized protein were pretreated with 10 μl of peptide solution (200 μg/ml) in Bis-Tris buffer (50 mM Bis-Tris, 100 mM NaCl, 2 mM CaCl2, pH 6.6 for CD36; 50 mM Bis-Tris, 100 mM NaCl, 2 mM CaCl2, pH 7.4 for 677 cells; BTC for TSP) at 37° C. for 1 h. After removal of the peptide solution, the slides were placed in individual compartments of a partitioned plastic box containing 7 ml Bis-Tris buffer. Fifty microliters of packed red cells (5-10% parasitemia) was added to each compartment of the plastic box. After incubation at 37° C. for 90 min with gentle rocking, the red cell suspension was carefully aspirated. The slides were rinsed by adding 7 ml of the buffer and 5 min of rocking after which time the buffer was aspirated. The slides were washed three times, fixed, and stained as described in Crandall 1991. The number of bound infected red cells/mm^2 area of immobilized protein was counted by light microscopy.

TSP = assay: Cytoadherence assay: binding of infected erythrocytes made from AE1-modified erythrocytes to immobilized TSP; format: cell-based; conditions: for binding of treated IEs to TSP, in words: immobilized TSP; for percentage of bound IEs/mm^2 as compared to untreated cells, TSP: uninfected erythrocytes treated (0.5 mg/ml chymotrypsin, 100 μM DIDS or 0.25 mg/ml FMA), then infected, harvested after 40 hr, mean ±SD of triplicate
Protocol: as §1, §2, §3

[2] = system: immunoglobulins from individuals living in a malaria endemic region; assay: ELISA: binding of IE-surface-eluted human immunoglobulins to immobilized DBR peptide; conditions: surface bound immunoglobulins eluted from IEs
Protocol: FIG. 4. Recognition of the DBR peptide by immunoglobulins from individuals living in a malaria endemic region (“immunes”). Human sera from either control or “immunes” were added to human erythrocytes infected with P. falciparum (“IEs”) and after incubation, the surface bound immunoglobulins were eluted using isotonic glycine buffer pH 3.0. Biotin labeled peptides were immobilized on 96 well plates using streptavidin, and the specific binding of the surface eluted immunoglobulins to the peptides was determined using alkaline phosphatase conjugated anti-human IgG.
To explore whether DBR is exposed as a consequence of parasite development, sera from individuals living in a region where malaria is endemic or from a control group was incubated with intact live IEs and the surface bound immunoglobulins eluted by a low pH treatment.

[3] = molecular target: T1, CD36 transfected CHO cells (Homo sapiens, UniProt P16671); assay: Interaction of biotin labeled DBR peptide with CD36 transfected CHO cells; format: binding; conditions: 40 μg/ml biotin labeled peptide, 1 hour at 37° C.
T1 construct: expressed in transfected cells; host or cells: CHO cells
Protocol: FIG. 2. Interaction of DBR peptide with CD36 transfected CHO cells. Cells were incubated for 1 hour at 37° C. with 40 μg/ml biotin labeled peptide, followed by 20 μg/ml Alexa-conjugated streptavidin.
To confirm that the DIDS binding region (DBR) of AE1 is involved in IE adhesion, two different kinds of in vitro assays were carried out.

[4] = Tolerability in animals immunized with the peptide; format: in vivo, rabbit
CD36 [5] = molecular target: T2, CD36 (Homo sapiens, UniProt P16671); assay: Competitive binding assay: inhibition of IE binding to immobilized CD36 by DBR peptide; format: cell-based; conditions: immobilized CD36 incubated with peptide before cytoadherence assay
T2 construct: Partially purified CD36 (CD36 fraction) was obtained from human platelets; from tissue; host or cells: human platelets
Protocol: FIG. 3. […] Immobilized CD36 was incubated with the indicated concentrations of DBR peptide, and then a cytoadherence assay was conducted as shown in the legend of Table 1. Each value represents the mean ±SD of triplicate determinations.
as §2, with “After removal of the solution by gentle aspiration, CD36- and TSP-immobilized spots were blocked with 1% BSA in phosphate buffered saline (PBS) at room temperature for 1 h.” left out
Cytoadherence assays were performed as described in Crandall et al., Exp Parasitol, 73:362 (1991) (“Crandall 1991”). […] The number of bound infected red cells/mm^2 area of immobilized protein was counted by light microscopy.

T2 sequence (P16671 whole entry): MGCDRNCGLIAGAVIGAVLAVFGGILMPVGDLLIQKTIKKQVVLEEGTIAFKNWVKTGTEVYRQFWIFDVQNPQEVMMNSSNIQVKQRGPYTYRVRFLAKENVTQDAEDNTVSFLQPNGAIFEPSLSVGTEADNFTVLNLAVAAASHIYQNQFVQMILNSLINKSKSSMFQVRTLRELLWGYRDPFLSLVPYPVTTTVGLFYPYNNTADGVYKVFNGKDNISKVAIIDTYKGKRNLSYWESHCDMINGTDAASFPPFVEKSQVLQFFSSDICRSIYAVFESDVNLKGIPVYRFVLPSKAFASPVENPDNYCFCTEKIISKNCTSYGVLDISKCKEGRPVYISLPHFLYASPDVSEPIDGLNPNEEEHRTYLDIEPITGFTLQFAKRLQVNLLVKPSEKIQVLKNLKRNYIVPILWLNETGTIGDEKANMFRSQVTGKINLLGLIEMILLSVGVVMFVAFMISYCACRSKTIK
T1 sequence (P16671 whole entry): as above

Chymotrypsin
binding of treated IEs to CD36, in words (CD36 [1]): significant reduction | percentage of bound IEs/mm^2 as compared to untreated cells, CD36 (CD36 [1]): 10.2 + 17.5 percentage | binding of treated IEs to TSP, in words (TSP): largely unaffected | percentage of bound IEs/mm^2 as compared to untreated cells, TSP (TSP): 81.0 ± 17.7 percentage

YETFSKLIKIFQDH [DBR peptide]
recognition of the DBR by immunoglobulins of individuals living in an endemic area [2]: strong humoral immune response | interaction with CD36 transfected CHO cells [3]: interacted with high affinity and specificity | anemia or other ill effects in immunized animals [4]: no anemia or other ill effects | inhibition of IE binding to immobilized CD36 (CD36 [5]): Concentration dependent inhibition | inhibition of IE binding to immobilized CD36 (CD36 [5]; listed as DBR peptides): inhibited the binding

O=C1OC2(c3ccc(O)cc3Oc3cc(O)ccc32)c2ccc(N3C(=O)C=CC3=O)cc21 [FMA, Fluorescein maleimide]
binding of treated IEs to CD36, in words (CD36 [1]): did not reduce the binding | percentage of bound IEs/mm^2 as compared to untreated cells, CD36 (CD36 [1]): 135.1 ± 12.9 percentage | binding of treated IEs to TSP, in words (TSP): did not reduce the binding | percentage of bound IEs/mm^2 as compared to untreated cells, TSP (TSP): 180.9 ± 26.0 percentage

O=S(=O)(O)c1cc(N=C=S)ccc1C=Cc1ccc(N=C=S)cc1S(=O)(=O)O [DIDS, 4,4′-diisothiocyanatostilbene-2,2′-disulfonic acid]
binding of treated IEs to CD36, in words (CD36 [1]): lower binding to CD36 | percentage of bound IEs/mm^2 as compared to untreated cells, CD36 (CD36 [1]): 33.2 ± 4.1 percentage | binding of treated IEs to TSP, in words (TSP): not to TSP | percentage of bound IEs/mm^2 as compared to untreated cells, TSP (TSP): 93.5 ± 35.9 percentage
